Data from PMC3639963, “A New Class of Small Molecule Inhibitor of BMP Signaling” (PLoS ONE, 2013).

Key:
Experiment in all cases: Nanosyn kinase profiling
Format in all cases: biochemical
Conditions in all cases: read-out: Percentage inhibition; for inhibition at 0.1 µM: 0.1 µM inhibitor; for inhibition at 1 µM: 1 µM inhibitor
[1] = target: T1, GRK6 (Homo sapiens, UniProt P43250)
T1 construct: purchased Nanosyn (enzymatic panel); SGC in-house recombinant human kinases (DSF panel); Invitrogen (ALK1-6)
Outline: (§1)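 Percent inhibition of each kinase was measured with the inhibitor at 0.1 µM and at 1 µM, as part of a 200-kinase human selectivity panel.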

[2] = target: T2, FES (Homo sapiens, UniProt P07332)
T2 construct: purchased Nanosyn (enzymatic panel); SGC in-house recombinant human kinases (DSF panel); Invitrogen (ALK1-6)
T2 sequence (P07332 whole entry): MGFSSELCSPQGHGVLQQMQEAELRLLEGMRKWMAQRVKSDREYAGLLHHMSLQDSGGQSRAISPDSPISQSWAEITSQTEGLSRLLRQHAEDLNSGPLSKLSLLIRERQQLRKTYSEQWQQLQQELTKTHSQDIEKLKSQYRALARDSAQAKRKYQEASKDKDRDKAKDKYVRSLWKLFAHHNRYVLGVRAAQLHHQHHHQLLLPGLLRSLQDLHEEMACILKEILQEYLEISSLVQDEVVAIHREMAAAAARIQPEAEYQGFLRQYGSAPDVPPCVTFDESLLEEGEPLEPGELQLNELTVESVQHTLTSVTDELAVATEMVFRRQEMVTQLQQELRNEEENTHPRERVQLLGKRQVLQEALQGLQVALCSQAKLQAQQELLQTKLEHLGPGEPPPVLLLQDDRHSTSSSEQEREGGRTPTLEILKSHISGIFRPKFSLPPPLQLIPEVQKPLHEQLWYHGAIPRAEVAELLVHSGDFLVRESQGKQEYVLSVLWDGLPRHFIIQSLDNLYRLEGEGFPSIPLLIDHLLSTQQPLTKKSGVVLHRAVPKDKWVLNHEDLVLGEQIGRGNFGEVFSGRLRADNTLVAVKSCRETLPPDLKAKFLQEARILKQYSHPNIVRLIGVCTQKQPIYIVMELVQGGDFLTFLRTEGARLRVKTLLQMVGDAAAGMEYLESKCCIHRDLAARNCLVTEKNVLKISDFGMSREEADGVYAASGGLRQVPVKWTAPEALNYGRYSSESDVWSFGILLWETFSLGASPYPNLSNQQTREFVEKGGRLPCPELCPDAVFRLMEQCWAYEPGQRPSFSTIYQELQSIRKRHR
Outline: as §1

[3] = target: T3, PASK (Homo sapiens, UniProt Q96RG2)
T3 construct: purchased Nanosyn (enzymatic panel); SGC in-house recombinant human kinases (DSF panel); Invitrogen (ALK1-6)
Outline: as §1

[4] = target: T4, SRC (Homo sapiens, UniProt P12931)
T4 construct: purchased Nanosyn (enzymatic panel); SGC in-house recombinant human kinases (DSF panel); Invitrogen (ALK1-6)
T4 sequence (P12931 whole entry): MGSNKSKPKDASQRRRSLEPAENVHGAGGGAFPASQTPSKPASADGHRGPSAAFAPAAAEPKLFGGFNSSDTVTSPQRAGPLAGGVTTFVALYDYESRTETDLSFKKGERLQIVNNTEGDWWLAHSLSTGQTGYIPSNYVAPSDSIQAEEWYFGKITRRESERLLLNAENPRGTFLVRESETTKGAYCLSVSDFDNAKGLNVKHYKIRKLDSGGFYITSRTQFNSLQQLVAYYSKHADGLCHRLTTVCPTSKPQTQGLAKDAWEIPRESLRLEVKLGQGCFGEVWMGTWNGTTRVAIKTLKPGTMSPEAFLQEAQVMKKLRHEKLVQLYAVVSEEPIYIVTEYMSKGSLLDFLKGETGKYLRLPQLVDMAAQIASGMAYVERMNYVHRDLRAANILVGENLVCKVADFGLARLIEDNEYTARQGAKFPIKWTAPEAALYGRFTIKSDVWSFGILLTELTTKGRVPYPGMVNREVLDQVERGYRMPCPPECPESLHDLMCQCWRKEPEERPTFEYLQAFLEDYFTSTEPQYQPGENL
Outline: as §1

[5] = target: T5, MAPK1 (Homo sapiens, UniProt P28482)
T5 construct: purchased Nanosyn (enzymatic panel); SGC in-house recombinant human kinases (DSF panel); Invitrogen (ALK1-6)
Outline: as §1

[6] = target: T6, IGF1R (Homo sapiens, UniProt P08069)
T6 construct: purchased Nanosyn (enzymatic panel); SGC in-house recombinant human kinases (DSF panel); Invitrogen (ALK1-6)
Outline: as §1

[7] = target: T7, ROCK1 (Homo sapiens, UniProt Q13464)
T7 construct: purchased Nanosyn (enzymatic panel); SGC in-house recombinant human kinases (DSF panel); Invitrogen (ALK1-6)
Outline: as §1

[8] = target: T8, BRSK1 (Homo sapiens, UniProt Q8TDC3)
T8 construct: purchased Nanosyn (enzymatic panel); SGC in-house recombinant human kinases (DSF panel); Invitrogen (ALK1-6)
T8 sequence (Q8TDC3 1-778): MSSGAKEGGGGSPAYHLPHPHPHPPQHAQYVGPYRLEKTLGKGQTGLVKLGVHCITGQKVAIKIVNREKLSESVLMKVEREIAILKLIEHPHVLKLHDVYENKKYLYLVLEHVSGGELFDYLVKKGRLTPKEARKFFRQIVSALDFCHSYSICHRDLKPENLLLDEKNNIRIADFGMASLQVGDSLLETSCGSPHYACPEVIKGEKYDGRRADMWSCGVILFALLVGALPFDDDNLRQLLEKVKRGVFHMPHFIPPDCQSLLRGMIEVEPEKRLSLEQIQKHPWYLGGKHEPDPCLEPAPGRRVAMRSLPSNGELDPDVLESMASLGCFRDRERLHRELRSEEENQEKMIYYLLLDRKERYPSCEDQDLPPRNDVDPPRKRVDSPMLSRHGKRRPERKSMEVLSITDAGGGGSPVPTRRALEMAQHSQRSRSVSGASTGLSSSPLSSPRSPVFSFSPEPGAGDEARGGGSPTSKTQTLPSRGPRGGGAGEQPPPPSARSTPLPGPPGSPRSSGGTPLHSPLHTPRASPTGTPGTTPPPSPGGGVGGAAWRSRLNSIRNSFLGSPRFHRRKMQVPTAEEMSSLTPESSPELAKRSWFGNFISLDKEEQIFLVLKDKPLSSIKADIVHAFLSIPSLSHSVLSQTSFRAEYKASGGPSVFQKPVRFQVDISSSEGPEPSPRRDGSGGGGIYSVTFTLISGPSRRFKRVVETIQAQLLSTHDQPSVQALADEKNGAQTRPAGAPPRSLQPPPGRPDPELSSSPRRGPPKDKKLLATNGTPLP
Outline: as §1

[9] = target: T9, p38β (Homo sapiens, UniProt Q15759)
T9 construct: purchased Nanosyn (enzymatic panel); SGC in-house recombinant human kinases (DSF panel); Invitrogen (ALK1-6)
T9 sequence (Q15759 whole entry): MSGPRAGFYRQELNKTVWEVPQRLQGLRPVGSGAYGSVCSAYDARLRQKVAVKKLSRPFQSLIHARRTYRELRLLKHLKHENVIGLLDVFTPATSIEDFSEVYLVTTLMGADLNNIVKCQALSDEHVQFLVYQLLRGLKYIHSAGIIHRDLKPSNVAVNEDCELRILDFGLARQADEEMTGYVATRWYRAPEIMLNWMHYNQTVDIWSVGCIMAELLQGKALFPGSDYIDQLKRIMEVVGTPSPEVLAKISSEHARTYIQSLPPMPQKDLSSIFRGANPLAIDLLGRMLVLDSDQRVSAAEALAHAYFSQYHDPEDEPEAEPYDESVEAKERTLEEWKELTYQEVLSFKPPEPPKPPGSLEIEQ
Outline: as §1

[10] = target: T10, DYRK1B (Homo sapiens, UniProt Q9Y463)
T10 construct: purchased Nanosyn (enzymatic panel); SGC in-house recombinant human kinases (DSF panel); Invitrogen (ALK1-6)
T10 sequence (Q9Y463 whole entry): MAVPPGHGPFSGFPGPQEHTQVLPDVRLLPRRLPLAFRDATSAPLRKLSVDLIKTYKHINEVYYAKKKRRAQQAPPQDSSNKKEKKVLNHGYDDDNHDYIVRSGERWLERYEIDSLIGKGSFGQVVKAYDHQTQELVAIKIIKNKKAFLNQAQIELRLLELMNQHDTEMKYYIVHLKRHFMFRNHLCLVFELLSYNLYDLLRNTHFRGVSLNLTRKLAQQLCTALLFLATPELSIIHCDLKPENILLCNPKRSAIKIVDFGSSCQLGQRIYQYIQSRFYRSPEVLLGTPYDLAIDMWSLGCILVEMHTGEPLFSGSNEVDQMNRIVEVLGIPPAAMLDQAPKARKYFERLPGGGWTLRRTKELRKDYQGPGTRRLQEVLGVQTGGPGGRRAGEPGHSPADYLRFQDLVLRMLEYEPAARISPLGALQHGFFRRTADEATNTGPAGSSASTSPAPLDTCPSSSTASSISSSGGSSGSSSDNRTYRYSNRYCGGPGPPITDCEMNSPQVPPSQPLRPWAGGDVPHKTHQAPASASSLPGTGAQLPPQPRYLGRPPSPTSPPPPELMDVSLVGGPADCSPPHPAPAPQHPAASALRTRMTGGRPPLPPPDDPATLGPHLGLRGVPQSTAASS
Outline: as §1

[11] = target: T11, RSK1 (Homo sapiens, UniProt Q15418)
T11 construct: purchased Nanosyn (enzymatic panel); SGC in-house recombinant human kinases (DSF panel); Invitrogen (ALK1-6)
Outline: as §1

[12] = target: T12, TSSK2 (Homo sapiens, UniProt Q96PF2)
T12 construct: purchased Nanosyn (enzymatic panel); SGC in-house recombinant human kinases (DSF panel); Invitrogen (ALK1-6)
T12 sequence (Q96PF2 1-358): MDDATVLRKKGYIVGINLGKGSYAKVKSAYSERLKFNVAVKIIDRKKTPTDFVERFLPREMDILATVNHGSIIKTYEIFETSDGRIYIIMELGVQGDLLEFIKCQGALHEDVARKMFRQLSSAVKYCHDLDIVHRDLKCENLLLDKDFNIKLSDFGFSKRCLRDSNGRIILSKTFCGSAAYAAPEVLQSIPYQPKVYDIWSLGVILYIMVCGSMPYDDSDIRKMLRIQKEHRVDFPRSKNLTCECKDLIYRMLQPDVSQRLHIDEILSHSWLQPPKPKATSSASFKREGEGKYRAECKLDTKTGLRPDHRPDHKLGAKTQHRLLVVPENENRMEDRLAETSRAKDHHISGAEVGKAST
Outline: as §1

[13] = target: T13, IRR (Homo sapiens, UniProt P14616)
T13 construct: purchased Nanosyn (enzymatic panel); SGC in-house recombinant human kinases (DSF panel); Invitrogen (ALK1-6)
T13 sequence (P14616 27-1297): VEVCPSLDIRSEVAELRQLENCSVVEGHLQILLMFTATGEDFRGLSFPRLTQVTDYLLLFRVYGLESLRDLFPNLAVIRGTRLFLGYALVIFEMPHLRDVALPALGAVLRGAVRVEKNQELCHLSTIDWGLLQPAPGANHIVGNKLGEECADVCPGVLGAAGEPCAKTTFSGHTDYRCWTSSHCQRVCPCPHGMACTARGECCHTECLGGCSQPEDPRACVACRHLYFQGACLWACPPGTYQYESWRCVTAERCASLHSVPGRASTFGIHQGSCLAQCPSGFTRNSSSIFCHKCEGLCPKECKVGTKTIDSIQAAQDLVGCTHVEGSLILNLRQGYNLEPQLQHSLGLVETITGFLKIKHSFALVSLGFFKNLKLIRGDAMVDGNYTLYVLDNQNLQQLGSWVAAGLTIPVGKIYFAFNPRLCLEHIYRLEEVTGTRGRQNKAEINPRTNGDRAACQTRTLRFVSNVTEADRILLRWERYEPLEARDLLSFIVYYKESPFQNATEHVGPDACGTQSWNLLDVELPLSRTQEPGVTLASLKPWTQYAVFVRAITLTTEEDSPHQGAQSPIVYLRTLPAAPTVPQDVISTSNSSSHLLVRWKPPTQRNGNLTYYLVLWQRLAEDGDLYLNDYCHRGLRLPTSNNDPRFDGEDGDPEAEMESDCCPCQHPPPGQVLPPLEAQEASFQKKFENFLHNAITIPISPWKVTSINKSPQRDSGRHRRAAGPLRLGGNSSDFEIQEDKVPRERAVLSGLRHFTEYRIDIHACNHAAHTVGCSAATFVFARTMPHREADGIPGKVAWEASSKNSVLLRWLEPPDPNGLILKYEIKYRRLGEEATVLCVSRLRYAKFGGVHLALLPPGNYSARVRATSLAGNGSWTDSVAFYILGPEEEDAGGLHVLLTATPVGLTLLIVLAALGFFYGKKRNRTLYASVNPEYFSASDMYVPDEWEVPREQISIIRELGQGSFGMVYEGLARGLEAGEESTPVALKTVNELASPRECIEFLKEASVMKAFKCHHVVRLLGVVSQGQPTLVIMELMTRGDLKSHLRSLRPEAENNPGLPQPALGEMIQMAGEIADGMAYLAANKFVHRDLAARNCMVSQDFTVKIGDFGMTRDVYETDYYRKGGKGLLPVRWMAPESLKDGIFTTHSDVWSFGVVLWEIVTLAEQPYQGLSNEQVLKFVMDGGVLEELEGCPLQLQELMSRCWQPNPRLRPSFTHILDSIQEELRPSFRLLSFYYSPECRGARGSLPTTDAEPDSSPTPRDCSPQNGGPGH
Outline: as §1

[14] = target: T14, KDR (Homo sapiens, UniProt P35968)
T14 construct: purchased Nanosyn (enzymatic panel); SGC in-house recombinant human kinases (DSF panel); Invitrogen (ALK1-6)
T14 sequence (P35968 20-1356): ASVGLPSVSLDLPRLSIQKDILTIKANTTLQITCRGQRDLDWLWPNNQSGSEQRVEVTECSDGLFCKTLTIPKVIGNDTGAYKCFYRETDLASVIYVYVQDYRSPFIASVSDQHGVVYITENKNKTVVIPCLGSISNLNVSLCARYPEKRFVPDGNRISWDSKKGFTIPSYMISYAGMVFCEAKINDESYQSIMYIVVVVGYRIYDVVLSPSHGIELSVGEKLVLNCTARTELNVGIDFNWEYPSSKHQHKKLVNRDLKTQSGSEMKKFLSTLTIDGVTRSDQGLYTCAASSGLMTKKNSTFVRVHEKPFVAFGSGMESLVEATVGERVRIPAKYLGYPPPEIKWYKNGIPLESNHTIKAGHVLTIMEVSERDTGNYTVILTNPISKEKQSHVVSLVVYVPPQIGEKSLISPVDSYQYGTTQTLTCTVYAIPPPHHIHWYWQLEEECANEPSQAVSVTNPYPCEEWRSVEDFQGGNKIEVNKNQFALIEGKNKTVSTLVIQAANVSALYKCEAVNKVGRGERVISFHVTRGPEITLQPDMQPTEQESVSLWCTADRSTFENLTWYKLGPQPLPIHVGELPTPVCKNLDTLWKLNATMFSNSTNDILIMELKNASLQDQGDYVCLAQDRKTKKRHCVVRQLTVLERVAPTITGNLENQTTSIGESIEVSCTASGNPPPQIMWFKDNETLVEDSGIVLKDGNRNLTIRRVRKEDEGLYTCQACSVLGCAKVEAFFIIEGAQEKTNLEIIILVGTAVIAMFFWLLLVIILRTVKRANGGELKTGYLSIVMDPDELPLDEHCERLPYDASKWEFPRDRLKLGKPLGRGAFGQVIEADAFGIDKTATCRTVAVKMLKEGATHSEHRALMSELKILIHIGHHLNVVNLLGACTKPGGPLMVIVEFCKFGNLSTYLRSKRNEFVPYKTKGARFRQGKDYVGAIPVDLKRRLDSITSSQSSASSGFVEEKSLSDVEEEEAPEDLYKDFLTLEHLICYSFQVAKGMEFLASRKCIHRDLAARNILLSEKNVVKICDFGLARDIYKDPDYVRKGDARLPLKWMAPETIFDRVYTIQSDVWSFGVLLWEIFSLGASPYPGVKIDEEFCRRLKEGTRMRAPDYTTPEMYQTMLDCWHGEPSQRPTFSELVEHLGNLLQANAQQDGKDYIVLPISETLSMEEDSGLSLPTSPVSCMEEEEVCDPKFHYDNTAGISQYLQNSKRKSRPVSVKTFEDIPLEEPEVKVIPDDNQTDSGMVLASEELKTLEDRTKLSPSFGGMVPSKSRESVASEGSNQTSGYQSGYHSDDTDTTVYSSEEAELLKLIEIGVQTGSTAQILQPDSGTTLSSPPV
Outline: as §1

[15] = target: T15, CK1γ1 (Homo sapiens, UniProt Q9HCP0)
T15 construct: purchased Nanosyn (enzymatic panel); SGC in-house recombinant human kinases (DSF panel); Invitrogen (ALK1-6)
Outline: as §1

[16] = target: T16, SYK (Homo sapiens, UniProt P43405)
T16 construct: purchased Nanosyn (enzymatic panel); SGC in-house recombinant human kinases (DSF panel); Invitrogen (ALK1-6)
Outline: as §1

[17] = target: T17, MAPK3 (Homo sapiens, UniProt P27361)
T17 construct: purchased Nanosyn (enzymatic panel); SGC in-house recombinant human kinases (DSF panel); Invitrogen (ALK1-6)
Outline: as §1

Row | SMILES | inhibition at 0.1 µM [1] [%] | inhibition at 1 µM [1] [%] | inhibition at 0.1 µM [2] [%] | inhibition at 1 µM [2] [%] | inhibition at 0.1 µM [3] [%] | inhibition at 1 µM [3] [%] | inhibition at 0.1 µM [4] [%] | inhibition at 1 µM [4] [%] | inhibition at 0.1 µM [5] [%] | inhibition at 1 µM [5] [%] | inhibition at 0.1 µM [6] [%] | inhibition at 1 µM [6] [%] | inhibition at 0.1 µM [7] [%] | inhibition at 1 µM [7] [%] | inhibition at 0.1 µM [8] [%] | inhibition at 1 µM [8] [%] | inhibition at 0.1 µM [9] [%] | inhibition at 1 µM [9] [%] | inhibition at 0.1 µM [10] [%] | inhibition at 1 µM [10] [%] | also measured
1 | COc1cc(-c2cc(-c3cccc(O)c3)cnc2N)cc(OC)c1OC [K02288, 3-[6-amino-5-(3,4,5-trimethoxy-phenyl)-pyridin-3-yl]-phenol] | 0.2 | 1.4 | -1 | -1 | 1.1 | 0.6 | 5.1 | 40 | -3 | 9.9 | -3 | -1 | 0.5 | 3.1 | 2.3 | 0 | 0 | 9.7 | 2.6 | 6 | inhibition at 0.1 µM [11]: 0.8%; inhibition at 1 µM [11]: 1.8%; inhibition at 0.1 µM [12]: -1%; inhibition at 1 µM [12]: -3%; inhibition at 0.1 µM [13]: -1%; inhibition at 1 µM [13]: -1%; inhibition at 0.1 µM [14]: 0.5%; inhibition at 1 µM [14]: 3.9%; inhibition at 0.1 µM [15]: 0%; inhibition at 1 µM [15]: 6.1%; inhibition at 0.1 µM [16]: 0%; inhibition at 1 µM [16]: -2%; inhibition at 0.1 µM [17]: 0%; inhibition at 1 µM [17]: -1%
2 | c1ccc2c(-c3cnn4cc(-c5ccc(N6CCNCC6)cc5)cnc34)ccnc2c1 [LDN-193189] | 0 | 0.2 | 2.2 | 2.4 | 1.9 | 1.4 | 8 | 33 | 2.6 | 1.4 | 4.1 | 5.4 | 0 | 0.7 | 3 | 17 | 0.4 | 1.5 | 7.1 | 41 | inhibition at 0.1 µM [11]: 0.6%; inhibition at 1 µM [11]: 8%; inhibition at 0.1 µM [12]: 0%; inhibition at 1 µM [12]: 0.5%; inhibition at 0.1 µM [13]: 1.9%; inhibition at 1 µM [13]: 2.2%; inhibition at 0.1 µM [14]: 19%; inhibition at 1 µM [14]: 69%; inhibition at 0.1 µM [15]: 3.1%; inhibition at 1 µM [15]: 14%; inhibition at 0.1 µM [16]: -1%; inhibition at 1 µM [16]: -12%; inhibition at 0.1 µM [17]: 1.9%; inhibition at 1 µM [17]: -2%
